Data as given in PMC6270778, “Novel Cinnamic Acid Derivatives as Antioxidant and Anticancer Agents: Design, Synthesis and Modeling Studies” (Molecules, 2014).
Several values for one entry are separate records, joined by “and”; a condition that tells them apart may be missing. Identical values can stand only once.

Assays:
[1] = test system: MRC-5 normal cells; experiment: SRB cytotoxicity assay, MRC-5 normal cells; type: cell-based; conditions: Homo sapiens, MRC5, 50% growth inhibition, 48 h exposure
Experimental: Thus, we conducted in vitro studies in two colon cancer cell lines (HT-29 and HCT-15) reported time and dose-dependent stimulation of cell proliferation by LTB4 and 12-HETE [46]. The synthesized acids have been tested in five different human tumour cell lines: HT-29 (colon), A-549 (lung), OAW-42 (ovarian), MDA-MB-231 (breast), HeLa (immortal cells from cervical cancer) and MRC-5 normal cells.
(§1) Cell passages were carried out by detaching adherent, logarithmically growing cells after addition of 2–3 mL of a mixture of 0.05% solution of trypsin (Gibco, 1:250) in phosphate-buffered saline (PBS) with 0.02% EDTA and incubation for 3–5 min at 37 °C. For the experiments, cells were plated (100 μL containing 10,000 cells/well) in 96-well flat-bottom microplates microplates (Costar-Corning, Acton, MA 01720, USA) so that untreated cells were in exponential growth phase at the time of cytotoxicity evaluation. Cells were left for 24 h at 37 °C to resume exponential growth and stabilization and afterwards exposed to tested agents for 48 h by the addition of an equal volume (100 μL) of either complete culture medium (control wells), or twice the final drug concentrations diluted in complete culture medium (test wells). Drug cytotoxicity was measured by means of the SRB colorimetric assay estimating the survival fractions (SF) as the percent of control (untreated cells) absorbance. The SRB assay was carried out as previously described and modified by our group. In brief, culture medium was aspirated prior to fixation using a microplate-multiwash device (Tri-Continent Scientific, Inc., Grass Valley, CA, USA) and 50 μL of 10% cold (4 °C) trichloroacetic acid (TCA) were gently added to the wells. Microplates were left for 30 min at 4 °C, washed five times with deionized water and left to dry at room temperature for at least 24 h. Subsequently, 70 μL of 0.4% (w/v) sulforhodamine B (Sigma) in 1% acetic acid solution were added to each well and left at room temperature for 20 min. SRB was removed and the plates were washed five times with 1% acetic acid before air drying. Bound SRB was solubilized with 200 μL of 10 mM unbuffered Tris-base solution and plates were left on a plate shaker for at least 10 min. Absorbance was read in a 96-well plate reader at 492 nm subtracting the background measurement at 620 nm. The test optical density (OD) value was defined as the absorbance of each individual well, minus the blank value (“blank” is the mean optical density of the background control wells, n = 8). Mean values and the coefficient of variation (CV) from six replicate wells were calculated automatically. Results were expressed as the “survival fraction” (SF), as shown below.
(§2) For each tested compound a dose-effect curve was produced. Sextuplicate determinations gave a CV (Standard Deviation/mean %) of much less than 10%, resulting in standard error (SE) which was very low in all cases. The data showing inhibition of cellular growth are expressed as the fraction of cells that remains unaffected (fu) (survival fraction, SF), which is derived from the following equation: fu = ODx/ODc where ODx and ODc represent the test and the control optical density, respectively.

[2] = Hydroxyl radicals scavenging activity (Fe3+/ascorbic acid system, competition with DMSO); conditions: 0.1 mM; no = no action under the used experimental conditions
Experimental: Thus we evaluated our acids for their competition with DMSO for ˙OH radicals was measured, hydroxyl radicals were produced by the Fe^3+/ascorbic acid system and expressed as percent inhibition of formaldehyde formation at 0.1 mM concentration (Table 3).
The hydroxyl radicals were produced by the Fe ^3+/ascorbic acid system. EDTA (0.1 mM), Fe ^3+ (167 μM), DMSO (33 mM) in phosphate buffer (50 mM, pH 7.4), the tested compounds (0.1 mM) and ascorbic acid (10 mM) were mixed in test tubes. The solutions were incubated at 37 °C for 30 min. The reaction was stopped by CCl3COOH (17% w/v) (Table 4) and the % scavenging activity of the tested compounds for hydroxyl radicals was given.

[3] = Inhibition of linoleic acid peroxidation (AAPH); conditions: 0.1 mM
Text: For the in vitro study of the free radical production, azo compounds generating free radicals through spontaneous thermal decomposition are used. The water soluble 2,2'-azobis(2-amidinopropane) hydrochloride (AAPH) is recommended as appropriate for measuring radical-scavenging activity in vitro. The activity of the peroxyl radicals produced by the action of AAPH greatly resembles to cellular activities such as lipid peroxidation. The phenyl substituted acids presented remarkable activity at 0.1 mM concentration (84%–92%) compared to the non-substituted derivatives (20%–63%).
For initiating the free radical, 2,2'-azobis(2-amidinopropane) dihydrochloride (AAPH) is used. The final solution in the UV cuvette consisted of ten microliters of the 16 mM linoleate sodium dispersion 0.93 mL of 0.05 M phosphate buffer, pH 7.4, thermostatted at 37 °C. 50 μL of 40 mM AAPH solution was added as a free radical initiator at 37 °C under air and 10 μL of the tested compounds. The oxidation of linoleic acid sodium salt results a conjugated diene hydroperoxide. The reaction is monitored at 234 nm (Table 3).

[4] = test system: HT-29 (colon); experiment: SRB cytotoxicity assay, HT-29; type: cell-based; conditions: Homo sapiens, 50% growth inhibition, 48 h exposure
Experimental: Human cancer cell lines used as targets were HT-29 (colon), A-549 (lung), OAW-42 (ovarian), MDA-MB-231 (breast), HeLa (immortal cells from cervical cancer). All cells were obtained from the American Type Culture Collection (ATCC). Cells were routinely grown as monolayer cell cultures in T-75 flasks (Costar) in an atmosphere containing 5% CO2 in air and 100% relative humidity at 37 °C and subcultured twice a week, restricting the total number of cell passages below 20. The culture medium used was Dulbecco’s modified Eagle’s medium (DMEM, Gibco, Grand Island, NY, USA) supplemented with 10% fetal bovine serum (Gibco), 2 mM glutamine (Sigma), 100 μg/mL streptomycin and 100 IU/mL penicillin.
as §1, §2

[5] = Superoxide radical scavenging activity (non-enzymatic, PMS/NADH, NBT method); conditions: 0.1 mM; no = no action under the used experimental conditions
Experimental: The superoxide anion radical (O2^−·) is less toxic than the hydroxyl radical, but still being one of the most known toxic ROS. Two different experimental assays are followed for the determination of superoxide anion radical scavenging activity: (i) one involves an enzymatic production of superoxide anions and (ii) the other is supported by a non- enzymatic procedure. Herein the test is performed at 0.1 mM concentration, generating superoxide anion radicals by a non-enzymatically assay (Table 3). Compound 1i presented the highest activity, followed by compound 1ii (75% and 50%, respectively).
Superoxide radicals were produced non-enzymatically by mixing PMS, NADH and air–oxygen. The nitroblue tetrazolium method was used for the estimation of the produced radicals. The reaction mixture containing compounds (0.1 mM), 3 μM PMS, 78 μM NADH, and 25 μM NBT in 19 μM phosphate buffer pH 7.4 was incubated for 2 min at room temperature. The acrylic acids were preincubated for 2 min before adding NADH (Table 4) and the absorption was recorded at 560 nm.

Row | SMILES | IC50 [1] [µM] | HO (%) (±SD) [2] | AAPH (%) (±SD), inhibition of linoleic acid peroxidation [3] | IC50 [4] [µM] | O2−· (%) (±SD) [5]
1 | O=C(O)C(=CC(Br)=Cc1ccccc1)c1ccccc1 [Compound 4i, 4-Bromo-2,5-diphenylpenta-2,4-dienoic acid] | 92 ± 1.3 | no | 88 ± 1.8 | > 240 | no
2 | N#Cc1ccc(C=CC(=O)O)cc1 [Compound 1ii, 3-(4-Cyanophenyl)acrylic acid] | > 240 | no | 20 ± 0.1 | > 240 | 50% and 50 ± 0.5%
3 | O=C(O)C=CC(Br)=Cc1ccccc1 [Compound 4ii, 4-Bromo-5-phenylpenta-2,4-dienoic acid] | 24 ± 0.6 | 100 ± 1.8% | 63 ± 1.1 | 54 ± 1.1 | no
4 | N#Cc1ccc(C=C(C(=O)O)c2ccccc2)cc1 [Compound 1i, 3-(4-Cyanophenyl)-2-phenylacrylic acid] | 222 ± 1.3 | no | 92 ± 1.2 | > 240 | 75% and 75 ± 1.0%
5 | O=C(O)C=CC=Cc1ccccc1 [Compound 3ii, 5-Phenylpenta-2,4-dienoic acid] | 240 ± 1.8 | 81 ± 1.2% | 30 ± 1.0 | > 240 | no
6 | O=C(O)C(=CC=Cc1ccc([N+](=O)[O-])cc1)c1ccccc1 [Compound 2i, 5-(4-Nitrophenyl)-2-phenylpenta-2,4-dienoic acid] | 96.3 ± 1.1 | 33 ± 0.8% | 89 ± 0.9 | 141 ± 1.8 | no
7 | O=C(O)C(=CC=Cc1ccccc1)c1ccccc1 [Compound 3i, 2,5-Diphenylpenta-2,4-dienoic acid] | > 240 | 81 ± 1.9% | 84 ± 1.4 | > 240 | no
8 | O=C(O)C=CC=Cc1ccc([N+](=O)[O-])cc1 [Compound 2ii, 5-(4-Nitrophenyl)penta-2,4-dienoic acid] | 240 ± 1 | no | 29 ± 0.7 | > 240 | no
